Activity calls are given as the source filed them. The rule behind the calls is not given here.

The test system of test [1] is 4T1. Kind of test: Synergistic induction of DNA damage in mouse 4T1 cells assessed as increase in gamma-H2AX level at 1 uM incubated for 24 hrs in presence of Olaparib by Western blot analysis. The class given is functional, cell-based.
Test [2] deals with 4T1. Kind of test: Induction of DNA damage in mouse 4T1 cells assessed as decrease in PARP1 level at 2 uM incubated for 24 hrs by Western blot analysis. The format is functional, cell-based.
Test [3] concerns the target T1, Histone deacetylase 3 (Mus musculus) (UniProt O88895).
T1 sequence (whole entry): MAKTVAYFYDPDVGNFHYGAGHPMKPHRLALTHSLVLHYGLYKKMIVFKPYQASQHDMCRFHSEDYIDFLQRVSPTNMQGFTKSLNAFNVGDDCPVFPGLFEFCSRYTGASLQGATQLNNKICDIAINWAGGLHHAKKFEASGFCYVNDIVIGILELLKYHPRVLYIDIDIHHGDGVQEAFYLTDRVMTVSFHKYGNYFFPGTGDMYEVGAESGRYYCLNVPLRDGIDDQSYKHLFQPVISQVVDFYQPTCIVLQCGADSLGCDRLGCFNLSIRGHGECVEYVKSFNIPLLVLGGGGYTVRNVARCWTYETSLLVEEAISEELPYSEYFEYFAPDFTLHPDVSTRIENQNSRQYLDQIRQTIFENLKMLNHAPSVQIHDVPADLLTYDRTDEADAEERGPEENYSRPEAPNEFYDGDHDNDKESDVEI
Kind of test: In vivo inhibition of HDAC3 in mouse B16-F10 cells implanted in male C57BL/6J mouse assessed as decrease in PD-L1 level at 50 mg/kg, IG treated for 14 days consecutively by Western blot analysis. The format is functional, organism-based. The note with it: time 14.0 day. In general terms: A western blot detects proteins with antibodies after separation by electrophoresis.

For test [4], the system named is B16-F10. Kind of test: Induction of antitumor immunity in mouse B16-F10 cells implanted in male C57BL/6J mouse assessed as CD3+CD4+ T cell infiltration at 50 mg/kg, IG treated for 14 days consecutively by flow cytometry (reference value: 7.4 %). The format is functional. The conditions noted are these: time 14 day.
Test [5] concerns the target T1, Histone deacetylase 3 (Mus musculus). Kind of test: In vivo inhibition of HDAC3 in mouse B16-F10 cells implanted in male C57BL/6J mouse assessed as increase in Ac-H3 level at 50 mg/kg, IG treated for 14 days consecutively by immunofluorescence based analysis. The class given is functional, organism-based. The conditions noted are these: time 14.0 day.
Test [6] deals with 4T1. Briefly: Induction of DNA damage in mouse 4T1 cells assessed as increase in gamma-H2AX level at 5 uM by immunofluorescence based analysis. The class given is functional, cell-based.
In test [7] the test system is 4T1. Kind of test: Induction of DNA damage in mouse 4T1 cells assessed as increase in gamma-H2AX level at 2 uM incubated for 24 hrs by Western blot analysis. The format is functional, cell-based.
Test [8] concerns Mus musculus. Kind of test: Effect on Ac-alpha-tubulin in mouse B16-F10 cells implanted in male C57BL/6J mouse at 50 mg/kg, IG treated for 14 days consecutively by Western blot analysis. The note with it: time 14.0 day. The class given is functional, organism-based.
The test system of test [9] is B16-F10. Briefly: Induction of antitumor immunity in mouse B16-F10 cells implanted in male C57BL/6J mouse assessed as CD3+CD8+ T cell infiltration at 50 mg/kg, IG treated for 14 days consecutively by flow cytometry (reference value: 10 %). The format is functional. The note with it: time 14 day. For orientation: Flow cytometry measures light scatter and fluorescence of single cells or particles in a stream.

In test [10] the target is T1, Histone deacetylase 3 (Mus musculus). Briefly: In vivo inhibition of HDAC3 in mouse B16-F10 cells implanted in male C57BL/6J mouse assessed as increase in Ac-H3 level at 50 mg/kg, IG treated for 14 days consecutively by Western blot analysis. The class given is functional, organism-based. The note with it: time 14.0 day.
In test [11] the test system is 4T1. Kind of test: Synergistic induction of DNA damage in mouse 4T1 cells assessed as decrease in PARP1 level at 1 uM incubated for 24 hrs in presence of Olaparib by Western blot analysis. The format is functional, cell-based.
Test [12] relates to 4T1. Kind of test: Induction of DNA damage in mouse 4T1 cells assessed as decrease in PARP1 level at 5 uM by immunofluorescence based analysis. The format is functional, cell-based.
The test system of test [13] is B16-F10. Briefly: Induction of antitumor immunity in mouse B16-F10 cells implanted in male C57BL/6J mouse assessed as CD3+CD8+ T cell infiltration at 20 mg/kg, IG treated for 14 days consecutively by flow cytometry (reference value: 10 %). The note with it: time 14 day. The class given is functional.
Test [14] concerns B16-F10. Briefly: Antitumor activity against mouse B16-F10 cells implanted in male C57BL/6J mouse at 20 mg/kg, IG treated for 14 days consecutively relative to control. The conditions noted are these: B16-F10, po, 336 h, time 14 day, read-out: TGI. The format is functional.
Test [15] concerns B16-F10. Briefly: Induction of antitumor immunity in mouse B16-F10 cells implanted in male C57BL/6J mouse assessed as CD3+CD4+ T cell infiltration at 20 mg/kg, IG treated for 14 days consecutively by flow cytometry (reference value: 7.4 %). The class given is functional. The conditions noted are these: time 14 day.
Test [16] deals with 4T1. Briefly: Induction of DNA damage in mouse 4T1 cells implanted in mouse assessed as increase in gamma-H2AX level at 20 mg/kg/day by immunofluorescence based analysis. The format is functional, organism-based.
Test [17] deals with 4T1. Kind of test: Induction of DNA damage in mouse 4T1 cells assessed as increase in gamma-H2AX level at 1 uM by immunofluorescence based analysis. The class given is functional, cell-based.
For test [18], the system named is 4T1. Kind of test: Antitumor activity against mouse 4T1 cells implanted in mouse at 20 mg/kg/day relative to control. The note with it: read-out: TGI. The format is functional.
The test system of test [19] is 4T1. Kind of test: Induction of DNA damage in mouse 4T1 cells implanted in mouse assessed as decrease in PARP level at 20 mg/kg/day by immunofluorescence based analysis. The format is functional, organism-based.
For test [20], the system named is 4T1. Briefly: Induction of DNA damage in mouse 4T1 cells implanted in mouse assessed as increase in gamma-H2AX level at 20 mg/kg/day by Western blot analysis. The format is functional, organism-based.
The subject of test [21] is 4T1. Briefly: Induction of DNA damage in mouse 4T1 cells assessed as decrease in PARP1 level at 1 uM by immunofluorescence based analysis. The class given is functional, cell-based.
Test [22] has as its system 4T1. Briefly: Induction of DNA damage in mouse 4T1 cells implanted in mouse assessed as decrease in PARP level at 20 mg/kg/day by Western blot analysis. The format is functional, organism-based.

For the compound `O=C(CCCCCCC(=O)Nc1ccccc1)NO` [VORINOSTAT], the outcome in [1], in test [2], in test [6], in test [7], in test [11] and in test [12] was Active. Besides, the inhibition result in [3], in test [5] and in test [10] was “Active” each time. Also, the results for the Activity in test [4], in [8] and in [9] were 18%, “No effect” and 17%, respectively.

On to `Cc1c(COc2cc(OCc3cccc(C#N)c3)c(CNC(C)(C)C(=O)O)cc2Cl)cccc1-c1ccccc1`, for which the Activity in test [13] came to 31%; in test [15], 23%. Also, the inhibition in vivo at 20 mg/kg in [14] was 33%.

In the case of `O=C(c1cc(Cc2n[nH]c(=O)c3ccccc23)ccc1F)N1CCN(C(=O)C2CC2)CC1` [OLAPARIB], the outcome in test [2], in [16], in test [17], in test [7], in test [19] and in test [20] was Active. Moreover, the outcome in test [21] and in test [22] was Active. The inhibition in vivo at 20 mg/kg/day in test [18] is 49%.
